Among the test systems are DU-145; K562; SF-295; RPMI-8226; OVCAR-8; NCI-H522; MCF7; HOP-62; HL-60; NCI-H23; UACC-62; SK-MEL-2; Malme-3M; NCI-H460; SF-268; T47D; HCT-15; SNB-19.
Common to all, as to test: NCI anticancer screen, dose series, 48 h

The structures appear in SMILES notation.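 96-well plates; 48 h exposure; 5 concentrations. Endpoints by linear interpolation between flanking doses. Not reached: highest tested concentration assigned. Abbreviation: GI50, concentration required for 50% inhibition of growth.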 The source made the active and inactive calls. No stated cut-off is given here; in the data, active = GI50 up to about 1.1 µM and inactive = higher.

On to `COc1cccc2cc(C(C)=O)c(=O)oc12`, for which the GI50 in the experiment on DU-145, in the experiment on K562, in the experiment with SF-295, in the experiment with RPMI-8226, in the experiment with OVCAR-8 and with NCI-H522 was > 100 µM (inactive) each time. Further, the GI50 with MCF7, in the experiment on HOP-62, in the experiment on HL-60, in the experiment on NCI-H23, in the experiment on UACC-62 and in the experiment with SK-MEL-2 was > 100 µM (inactive) each time. Further, the GI50 is 52.8 µM (inactive) in the experiment with Malme-3M, > 100 µM (inactive) in the experiment on NCI-H460, > 100 µM (inactive) with SF-268 and 12.6 µM (inactive) in the experiment on T47D.

On to `COC1/C=C/C(C)C(OC)CC(O)/C=C/C(C)C(C(C)C(OC)C(C)CCC(=O)C(C)C(C/C=C/N(C)C=O)OC)OC(=O)/C=C/C=C(\C)CC(OC)CC2=CC(=O)O[C@@H](C(C)C(OC)C1)[C@H]2O` (stereo not given in full), for which the GI50 in the experiment on DU-145 was 0.544 µM (active); in the experiment with HCT-15, 0.0556 µM; with K562 it was 17.1 µM (inactive); with SF-295, 0.11 µM (active); with RPMI-8226 it was 0.0536 µM (active); with OVCAR-8, 0.16 µM (active). Besides, the GI50 in the experiment on NCI-H522 is 0.146 µM (active); in the experiment on MCF7, 0.0982 µM (active); in the experiment with HOP-62, 0.0537 µM (active); in the experiment on HL-60, 0.064 µM (active); in the experiment with NCI-H23, 0.26 µM (active); in the experiment with UACC-62, 0.148 µM (active). Besides, the GI50 is 0.069 µM (active) in the experiment on Malme-3M; 0.0395 µM (active) with NCI-H460; 0.153 µM (active) with SF-268; 0.0962 µM (active) in the experiment on SNB-19; 0.912 µM (active) in the experiment on T47D.

Regarding `N#CC(=C1CCN(CCCC(=O)c2ccc(F)cc2)CC1)c1ccccc1`, the GI50 in the experiment on DU-145 is > 100 µM (inactive); with HCT-15 it was above 100 µM; in the experiment on K562 it was > 100 µM (inactive); in the experiment on SF-295, > 100 µM (inactive); in the experiment on RPMI-8226, > 100 µM (inactive); in the experiment with OVCAR-8, > 100 µM (inactive). Further, the GI50 in the experiment on NCI-H522 was 21.3 µM (inactive); in the experiment on MCF7, > 100 µM (inactive); with HL-60, > 100 µM (inactive); in the experiment with NCI-H23 it was > 100 µM (inactive); in the experiment with UACC-62, > 100 µM (inactive); with SK-MEL-2, > 100 µM (inactive). Further, the GI50 in the experiment with Malme-3M, in the experiment with NCI-H460, in the experiment with SF-268, in the experiment on SNB-19 and in the experiment on T47D was > 100 µM (inactive) throughout.

Take `CCOc1ccccc1/N=N/C1C(=O)N(C(=O)CC(=O)Nc2ccccc2OC)N=C1C` (stereo not given): the GI50 in the experiment with DU-145 is 71.3 µM (inactive); with HCT-15, 15.7 µM; in the experiment with SF-295 it was 20.9 µM (inactive); with RPMI-8226, 45.2 µM (inactive); in the experiment with OVCAR-8, 37.5 µM (inactive); in the experiment with NCI-H522, 42.9 µM (inactive). Besides, the GI50 in the experiment on MCF7 is > 100 µM (inactive); with HOP-62, 18.7 µM (inactive); with HL-60, > 100 µM (inactive); with NCI-H23 it was 80 µM (inactive); in the experiment on UACC-62 it was 25.7 µM (inactive); in the experiment on SK-MEL-2, 55.7 µM (inactive). The GI50 in the experiment on Malme-3M was > 100 µM (inactive); in the experiment with NCI-H460, 42.4 µM (inactive); in the experiment with SF-268, 22.4 µM (inactive); with T47D, 37 µM (inactive).

Turning to `[O-][n+]1nc(N2CCOCC2)nc2ccccc21`, the GI50 in the experiment on DU-145 is > 100 µM (inactive); in the experiment on HCT-15, above 100 µM; with K562, > 100 µM (inactive); in the experiment with SF-295, > 100 µM (inactive); with RPMI-8226 it was > 100 µM (inactive); in the experiment with OVCAR-8, > 100 µM (inactive). The GI50 in the experiment with NCI-H522, in the experiment with MCF7, in the experiment with HOP-62, in the experiment on HL-60, in the experiment on NCI-H23 and with UACC-62 was > 100 µM (inactive) in each case. Moreover, the GI50 in the experiment on SK-MEL-2, in the experiment with Malme-3M, in the experiment on SF-268, with SNB-19 and with T47D was > 100 µM (inactive) throughout.

On to `COc1ccc(NC(=O)CSc2nc(C)nc3c2sc(=S)n3-c2ccccc2)cc1`, for which the GI50 in the experiment on DU-145 is > 10 µM (inactive); with HCT-15, above 10 µM; in the experiment on K562, > 10 µM (inactive); with SF-295, 7.26 µM (inactive); in the experiment with RPMI-8226, > 10 µM (inactive); with OVCAR-8, > 10 µM (inactive). The GI50 in the experiment on NCI-H522 is > 10 µM (inactive); with MCF7, 8.11 µM (inactive); with HOP-62, 5.27 µM (inactive); in the experiment on HL-60, > 10 µM (inactive); in the experiment with NCI-H23 it was > 10 µM (inactive); in the experiment with UACC-62, > 10 µM (inactive). Moreover, the GI50 in the experiment with Malme-3M is > 10 µM (inactive); with NCI-H460, 3.73 µM (inactive); with SF-268, > 10 µM (inactive); in the experiment with SNB-19, > 10 µM (inactive); with T47D, > 10 µM (inactive).

For the molecule `CCNc1ncnc2c1nnn2CC`, the GI50 is > 100 µM (inactive) with DU-145; above 100 µM in the experiment on HCT-15; > 100 µM (inactive) in the experiment with K562; 79.6 µM (inactive) with SF-295; > 100 µM (inactive) in the experiment with RPMI-8226; 97.5 µM (inactive) in the experiment with OVCAR-8. Moreover, the GI50 with NCI-H522, in the experiment on MCF7, in the experiment with HOP-62, in the experiment on HL-60, with NCI-H23 and with UACC-62 was > 100 µM (inactive) in each case. In addition, the GI50 with SK-MEL-2, in the experiment on Malme-3M, with SNB-19 and in the experiment on T47D was > 100 µM (inactive) each time.

`COc1cc(/C=C/C(=O)N[C@@H]2C(=O)N3[C@@H]2SC(C)(C)[C@@H]3C(=O)O)ccc1O`: the GI50 is > 100 µM (inactive) in the experiment on DU-145; above 100 µM in the experiment on HCT-15; > 100 µM (inactive) in the experiment on K562; > 100 µM (inactive) in the experiment with SF-295; > 100 µM (inactive) in the experiment on RPMI-8226; > 100 µM (inactive) with OVCAR-8. The GI50 in the experiment on NCI-H522, in the experiment with MCF7, in the experiment with HOP-62, in the experiment on HL-60, in the experiment on NCI-H23 and in the experiment on UACC-62 was > 100 µM (inactive) each time. The GI50 with SK-MEL-2, with NCI-H460, with SF-268, in the experiment on SNB-19 and in the experiment on T47D was > 100 µM (inactive) throughout.

As for `C=C1C(=O)C23CC1CCC2C12CO[C@H](O)[C@H]1C(C)(C)[C@H](OC(C)=O)C[C@H]2OC3=O` (stereo not given in full), the GI50 was 25.5 µM (inactive) in the experiment with DU-145; 14.6 µM with HCT-15; 5.9 µM (inactive) in the experiment with K562; > 100 µM (inactive) in the experiment with SF-295; 76.7 µM (inactive) with RPMI-8226; 30.6 µM (inactive) in the experiment on OVCAR-8. Further, the GI50 in the experiment on NCI-H522 was 1.26 µM (inactive); in the experiment with MCF7 it was 15.8 µM (inactive); in the experiment with HL-60, 16.6 µM (inactive); in the experiment with NCI-H23 it was 27.7 µM (inactive); in the experiment with UACC-62 it was 15 µM (inactive); with SK-MEL-2 it was 15.3 µM (inactive). For the same molecule, the GI50 with Malme-3M is 13.3 µM (inactive); in the experiment on NCI-H460 it was 34.6 µM (inactive); with SF-268 it was 14.7 µM (inactive); with SNB-19, > 100 µM (inactive); with T47D it was 19.7 µM (inactive).
